Data reported in publication PMC4589676, “Functional characterization and stability improvement of a ‘thermophilic-like’ ene-reductase from Rhodococcus opacus 1CP” (Frontiers in Microbiology, 2015).

Key:
[1] = molecular target: T1, OYERo2 (Rhodococcus opacus, UniProt A0A1B1KA86); assay: flavin absorption spectra (charge-transfer complex); format: binding; conditions: phenolic ligand
T1 construct: gene O4328_33150; full length, N-terminal His10-tag kept, codon-optimised synthetic gene (1101 bp) in pET16bP, E. coli BL21 (DE3); 387 residues, theoretical 41,615 Da; variant OYERo2a is GenBank KR349312
T1 sequence (A0A1B1KA86 entry or part of it): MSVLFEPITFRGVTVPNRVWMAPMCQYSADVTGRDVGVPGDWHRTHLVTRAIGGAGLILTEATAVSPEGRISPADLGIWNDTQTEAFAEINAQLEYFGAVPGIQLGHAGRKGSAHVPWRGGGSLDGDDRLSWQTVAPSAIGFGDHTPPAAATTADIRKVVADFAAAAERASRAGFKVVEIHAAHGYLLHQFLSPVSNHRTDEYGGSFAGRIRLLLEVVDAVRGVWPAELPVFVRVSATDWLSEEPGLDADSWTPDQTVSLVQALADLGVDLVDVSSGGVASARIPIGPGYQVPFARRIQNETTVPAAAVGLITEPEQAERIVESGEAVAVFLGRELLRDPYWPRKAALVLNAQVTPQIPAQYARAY
From the text: flavin absorption spectra (charge-transfer complex) on OYERo2 | OYERo2 forms charge-transfer complexes with phenolic ligands. Next to 4-hydroxybenzaldehyde

[2] = molecular target: T2, OYERo2 (Rhodococcus opacus, UniProt A0A1B1KA86, A92R/Q93R/L94I/E95R/Y96E); assay: absorption spectra and RP-HPLC of extracted flavin; format: binding; conditions: variant OYERo2a; same
T2 construct: gene O4328_33150; full length, N-terminal His10-tag kept, codon-optimised synthetic gene (1101 bp) in pET16bP, E. coli BL21 (DE3); 387 residues, theoretical 41,615 Da; variant OYERo2a is GenBank KR349312
T2 sequence (A0A1B1KA86 entry or part of it A92R/Q93R/L94I/E95R/Y96E): as the sequence (A0A1B1KA86 entry or part of it) above, with A92R, Q93R, L94I, E95R, Y96E counted along it

[3] = molecular target: T1, OYERo2; assay: absorption spectra and RP-HPLC of extracted flavin; format: binding; conditions: non-covalent, 1:1, co-purified
[4] = molecular target: OYERo2, ene-reductase (old yellow enzyme) from Rhodococcus opacus 1CP (Rhodococcus opacus 1CP); assay: SEC; analytical gel filtration, Superdex 200 HR 10/30, room temperature, 50 mM phosphate buffer pH 7.1 with 150 mM NaCl; 30 uM enzyme, elution buffer with 200 uM NADPH
[5] = molecular target: OYERo2, ene-reductase (old yellow enzyme) from Rhodococcus opacus 1CP (Rhodococcus opacus 1CP); assay: SEC; analytical gel filtration, Superdex 200 HR 10/30, room temperature, 50 mM phosphate buffer pH 7.1 with 150 mM NaCl; high protein concentration (119 uM for OYERo2)
[6] = molecular target: OYERo2, ene-reductase (old yellow enzyme) from Rhodococcus opacus 1CP (Rhodococcus opacus 1CP); assay: SEC; analytical gel filtration, Superdex 200 HR 10/30, room temperature, 50 mM phosphate buffer pH 7.1 with 150 mM NaCl; lower protein concentration (59 and 30 uM for OYERo2)

With `O=Cc1ccc(O)cc1` [4-hydroxybenzaldehyde] as the compound, how does the “flavin absorption spectra (charge-transfer complex)” value [1] read?
The value was “OYERo2 forms charge-transfer complexes with phenolic ligands. Next to 4-hydroxybenzaldehyde”.

With `Cc1cc2nc3c(=O)[nH]c(=O)nc-3n(C[C@H](O)[C@H](O)[C@H](O)COP(=O)(O)O)c2cc1C` [FMN] as the compound, how does the “absorption spectra and RP-HPLC of extracted flavin” value [2] read?
The value was “RP-HPLC on flavin samples extracted from purified OYERo2 and OYERo2a”.

What about the “absorption spectra and RP-HPLC of extracted flavin” value [3] of the same compound?
The value was “The type of flavin cofactor was identified as FMN using RP-HPLC”.

Which results are given for “OYERo2, ene-reductase (old yellow enzyme) from Rhodococcus opacus 1CP”?
stoichiometry N [4]: 2; stoichiometry N [5]: 4; stoichiometry N [6]: 2
